# Measurements: patent US8642774B2, “Compounds” (Boehringer Ingelheim International GmbH, priority 2011, dated 2014)
# Biological target: T1, human recombinant mGluR5 (Homo sapiens, UniProt P41594)
# T1 construct: expressed in transfected cells; host or cells: HEK 293 cell line, cultured with tetracycline, hygromycin and geneticin; tetracycline is withdrawn 3-7 days before the assay
# Assay: positive modulation of mGluR5, calcium based FLIPR assay
# Assay type: cell-based
# Conditions: not given
# Description: The positive modulation of mGluR5 is measured in a HEK 293 cell line expressing human recombinant mGluR5 and is detected with calcium based FLIPR assay. The cells are cultured with DMEM supplemented with 10% FCS, 2 μg/mL tetracycline, 100 μg/mL hygromycin and 500 μg/mL gneticin. The cell culture media is exchanged for tetracycline-free cell culture media 3-7 days before the assay. One day before the assay the cell culture medium is exchanged to DMEM without glutamine and phenol red and supplemented with 10% FCS, 100 μg/mL hygromycin and 500 μg/mL geneticin. On the assay day, the medium of the subconfluent cultures is removed and the cells are detached by addition of 2.5 ml EDTA (0.02%) per 175 cm2 culture flask for 1 minute. The cells are resuspend in Ringer solution (140 mM NaCl, 5 mM KCl, 2.5 mM CaCl2, 1.5 mM MgCl2, 5 mM Glucose, 10 mM Hepes; adjusted to pH 7.4 with NaOH), pooled and Ringer solution added to adjust the volume to 50 mL. The cell suspension is centrifuged for 5 min at 1500 U/min (425 g). The supernatant is removed and the cells washed a second time with 50 ml fresh Ringer solution and centrifuged again as before. The supernatant is again removed and the pellet resuspended in Ringer solution to 1,000,000 cells/ml (1×10^6 cells/mL). The cells are plated onto BD BioCoat Poly-D-Lysine 384 well plates (20.000 cells/well; 20 μl/well). The lid covered plates are then incubated until use at 37° C./10% CO2. For dye loading, 20 μl of Calcium-4 assay kit solution (prepared according to the manufacturer's description in Ringer solution) are added to the cells and the plates are incubated for 80 min 37° C. and then 10 min at room temperature. • Controls, Compound dilution and assay execution: • Each assay plate contained wells with “high” and “low” controls:
# Low controls 1% DMSO/ringer solution+basal glutamate activation (defined as 100% CTL).
# High controls 10 μM CDPPB+basal glutamate activation (defined as 200% CTL).
# Test compounds are dissolved and diluted in DMSO to 100-fold the desired concentrations. In a second step, the compounds are diluted in Ringer solution such that the compounds are 4-fold more concentrated than the desired final assay concentration. The final DMSO concentration was 1%.
# 20 μl of each compound solution are then transferred to the assay plate and the Ca2+ kinetic is measured to determine any intrinsic compound activity. After 5 min incubation in the FLIPR device, the second stimulation with 20 μl of glutamate in Ringer solution (glutamate concentration adjusted to approximately 5% basal stimulation of the maximal possible glutamate effect) is added and the kinetic Ca2+ response of the wells was measured for the modulation effect.
# The peak height of the Ca release related fluorescence signal (9-66) is used for the EC50. The EC50 of the modulation is calculated over a nonlinear regression with GraphPad Prism (Table 1).
# T1 sequence (P41594 21-1212): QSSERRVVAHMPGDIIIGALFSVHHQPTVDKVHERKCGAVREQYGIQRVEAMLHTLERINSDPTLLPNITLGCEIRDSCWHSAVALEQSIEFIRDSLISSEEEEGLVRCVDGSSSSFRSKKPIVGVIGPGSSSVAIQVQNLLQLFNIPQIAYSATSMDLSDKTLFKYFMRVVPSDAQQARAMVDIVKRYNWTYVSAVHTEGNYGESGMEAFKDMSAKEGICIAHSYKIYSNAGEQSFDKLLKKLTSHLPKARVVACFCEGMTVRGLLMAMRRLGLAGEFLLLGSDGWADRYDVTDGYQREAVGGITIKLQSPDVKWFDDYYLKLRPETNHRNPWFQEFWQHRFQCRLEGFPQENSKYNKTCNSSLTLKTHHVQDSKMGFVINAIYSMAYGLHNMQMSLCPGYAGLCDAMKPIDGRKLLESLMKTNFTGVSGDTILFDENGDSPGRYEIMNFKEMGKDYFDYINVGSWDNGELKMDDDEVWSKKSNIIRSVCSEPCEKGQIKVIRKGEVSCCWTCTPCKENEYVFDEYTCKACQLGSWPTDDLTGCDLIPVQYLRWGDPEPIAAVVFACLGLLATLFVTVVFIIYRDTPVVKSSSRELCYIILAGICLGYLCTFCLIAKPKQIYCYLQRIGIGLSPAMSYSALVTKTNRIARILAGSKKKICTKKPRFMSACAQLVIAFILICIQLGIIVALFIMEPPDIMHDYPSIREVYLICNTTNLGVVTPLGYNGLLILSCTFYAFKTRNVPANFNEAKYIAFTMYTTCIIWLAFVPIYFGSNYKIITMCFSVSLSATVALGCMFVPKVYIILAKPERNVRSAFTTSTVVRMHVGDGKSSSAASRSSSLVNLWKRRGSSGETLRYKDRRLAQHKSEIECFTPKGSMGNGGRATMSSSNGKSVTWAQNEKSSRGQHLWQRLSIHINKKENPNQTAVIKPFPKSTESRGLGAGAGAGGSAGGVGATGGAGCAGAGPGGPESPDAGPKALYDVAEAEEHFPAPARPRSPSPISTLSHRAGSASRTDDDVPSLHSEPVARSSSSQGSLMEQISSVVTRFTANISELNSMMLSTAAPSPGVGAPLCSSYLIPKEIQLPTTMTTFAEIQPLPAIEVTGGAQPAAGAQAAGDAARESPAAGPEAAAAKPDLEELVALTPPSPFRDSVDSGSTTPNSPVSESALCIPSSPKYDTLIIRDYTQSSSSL
row,Structure (SMILES),EC50 [nM]
1,O=C(Cn1nc(-c2ccc(F)cc2)nc1-c1ccc(F)cc1)N1CCC(Nc2ccccc2)CC1 [Example 7.02.20.],1530

# Same assay, conditions: EC50 of the modulation; HEK 293 cell line expressing human recombinant mGluR5; peak height of Ca fluorescence signal after glutamate at approx. 5% basal stimulation; read-out: EC50
row,Structure (SMILES),EC50 [nM]
1,O=C(Cn1nc(-c2ccc(F)cc2)nc1-c1ccc(F)cc1)N1CCN(c2ncnc3ccccc23)CC1 [07.03.141^],1120
2,"O=C(Cn1nc(-c2ccc(F)cc2)nc1-c1ccc(F)cc1)N1CCN(c2ccccn2)C(=O)C1 [Example 7.01.01., 4-(2-(3,5-bis-(4-Fluoro-phenyl)-(1,2,4)triazol-1-yl)-acetyl)-1-pyridin-2-yl-piperazin-2-one]",212
3,O=C(Cn1nc(-c2ccc(F)cc2)nc1-c1ccc(F)cc1)N1CCN(c2nccs2)C(=O)C1 [Example 7.01.02.],118
4,COc1cccc(N2CCN(C(=O)Cn3nc(-c4ccc(F)cc4)nc3-c3ccc(F)cc3)CC2=O)c1 [Example 7.01.03.],283
5,"O=C(Cn1nc(-c2ccc(F)cc2)nc1-c1ccc(F)cc1)N1CCC(c2noc3ccccc23)CC1 [Example 7.02.01., 1-(4-Benzo[d]isoxazol-3-yl-piperidin-1-yl)-2-(3,5-bis-(4-fluoro-phenyl)-(1,2,4)triazol-1-yl)-ethanone]",178
6,CC(C)c1noc(C2CCN(C(=O)Cn3nc(-c4ccc(F)cc4)nc3-c3ccc(F)cc3)CC2)n1 [Example 7.02.03.],1220
7,O=C(Cn1nc(-c2ccc(F)cc2)nc1-c1ccc(F)cc1)N1Cc2cn[nH]c2C1 [Example 7.02.04.],818
8,O=C(Cn1nc(-c2ccc(F)cc2)nc1-c1ccc(F)cc1)N1CCc2cc(F)ccc2C1 [Example 7.02.05.],900
9,O=C(Cn1nc(-c2ccc(F)cc2)nc1-c1ccc(F)cc1)N1CCC(OCC2CC2)CC1 [Example 7.02.06.],1400
10,CC(=O)Nc1nc2c(s1)CCN(C(=O)Cn1nc(-c3ccc(F)cc3)nc1-c1ccc(F)cc1)CC2 [Example 7.02.07.],1200
11,COc1cccc2c1CCN(C(=O)Cn1nc(-c3ccc(F)cc3)nc1-c1ccc(F)cc1)C2 [Example 7.02.08.],666
12,O=C(Cn1nc(-c2ccc(F)cc2)nc1-c1ccc(F)cc1)N1CCc2cc(C(F)(F)F)ccc2C1 [Example 7.02.09.],992
13,O=C(Cn1nc(-c2ccc(F)cc2)nc1-c1ccc(F)cc1)N1CCc2cccc(F)c2C1 [Example 7.02.10.],965
14,COC(=O)c1ccc2c(c1)CCN(C(=O)Cn1nc(-c3ccc(F)cc3)nc1-c1ccc(F)cc1)CC2 [Example 7.02.11.],376
15,O=C(Cn1nc(-c2ccc(F)cc2)nc1-c1ccc(F)cc1)N1CCc2ccccc2CC1 [Example 7.02.12.],1020
16,O=C(Cn1nc(-c2ccc(F)cc2)nc1-c1ccc(F)cc1)N1CCN(c2cccc(F)c2)C(=O)C1 [Example 7.02.13.],544
17,O=C(Cn1nc(-c2ccc(F)cc2)nc1-c1ccc(F)cc1)N1CCN(c2ccccc2F)C(=O)C1 [Example 7.02.14.],537
18,CCNC(=O)Nc1nc2c(s1)CN(C(=O)Cn1nc(-c3ccc(F)cc3)nc1-c1ccc(F)cc1)CC2 [Example 7.02.15.],646
19,CC(C)NC(=O)Nc1nc2c(s1)CN(C(=O)Cn1nc(-c3ccc(F)cc3)nc1-c1ccc(F)cc1)CC2 [Example 7.02.16.],1360
20,CNC(=O)Nc1nc2c(s1)CN(C(=O)Cn1nc(-c3ccc(F)cc3)nc1-c1ccc(F)cc1)CC2 [Example 7.02.17.],1060
21,O=C(Cn1nc(-c2ccc(F)cc2)nc1-c1ccc(F)cc1)N1CCC(c2nccs2)CC1 [Example 7.02.18.],516
22,O=C(Cn1nc(-c2ccc(F)cc2)nc1-c1ccc(F)cc1)N1CCC(c2ncc(-c3ccccc3)s2)CC1 [Example 7.02.19.],1990
23,O=C(Cn1nc(-c2ccc(F)cc2)nc1-c1ccc(F)cc1)N1CCC(c2nnc(-c3ccc(F)cc3)o2)CC1 [Example 7.02.22.],746
24,Cc1nc2c(s1)CN(C(=O)Cn1nc(-c3ccc(F)cc3)nc1-c1ccc(F)cc1)C2 [Example 7.02.23.],278
25,N#Cc1ccc(Cl)cc1NC1CCN(C(=O)Cn2nc(-c3ccc(F)cc3)nc2-c2ccc(F)cc2)CC1 [Example 7.02.24.],560
26,CN1C(=O)N(C2CCN(C(=O)Cn3nc(-c4ccc(F)cc4)nc3-c3ccc(F)cc3)CC2)Cc2ccccc21 [Example 7.02.25.],1860
27,Nc1ccc2c(c1)CCN(C(=O)Cn1nc(-c3ccc(F)cc3)nc1-c1ccc(F)cc1)CC2 [Example 7.02.26.],518

row,Structure (SMILES),EC50 [nM]
1,O=C(Cn1nc(-c2ccc(F)cc2)nc1-c1ccc(F)cc1)N1CCc2c(F)ccc(F)c2C1 [Example 7.02.27.],1830
2,O=C(Cn1nc(-c2ccc(F)cc2)nc1-c1ccc(F)cc1)N1CCC(c2noc3ccc(F)cc23)CC1 [Example 7.02.28.],644
3,C=CCNC(=O)Nc1nc2c(s1)CN(C(=O)Cn1nc(-c3ccc(F)cc3)nc1-c1ccc(F)cc1)CC2 [Example 7.02.29.],504
4,O=C(Cn1nc(-c2ccc(F)cc2)nc1-c1ccc(F)cc1)N1CCC(Oc2ccc3c(c2)OCO3)CC1 [Example 7.02.30.],932
5,O=C(Cn1nc(-c2ccc(F)cc2)nc1-c1ccc(F)cc1)N1CCC(n2nc(-c3cccs3)ccc2=O)CC1 [Example 7.02.31.],1780
6,CC(C)c1ncc2c(n1)CCN(C(=O)Cn1nc(-c3ccc(F)cc3)nc1-c1ccc(F)cc1)C2 [Example 7.02.32.],468
7,COC(=O)c1ccc2c(c1)CCN(C(=O)Cn1nc(-c3ccc(F)cc3)nc1-c1ccc(F)cc1)C2 [Example 7.02.33.],309
8,Cn1c(=O)n(C2(C)CCN(C(=O)Cn3nc(-c4ccc(F)cc4)nc3-c3ccc(F)cc3)CC2)c2ccccc21 [Example 7.02.34.],1460
9,O=C(Cn1nc(-c2ccc(F)cc2)nc1-c1ccc(F)cc1)N1CCC(N2Cc3c(Cl)cccc3NC2=O)CC1 [Example 7.02.35.],1420
10,COc1ccc2c(c1)CCN(C(=O)Cn1nc(-c3ccc(F)cc3)nc1-c1ccc(F)cc1)C2C (stereo not drawn) [Example 7.02.36.],1090
11,O=C(Cn1nc(-c2ccc(F)cc2)nc1-c1ccc(F)cc1)N1CCc2ncnc(-c3ccccc3)c2CC1 [Example 7.02.37.],708
12,Cc1noc(C2CCN(C(=O)Cn3nc(-c4ccc(F)cc4)nc3-c3ccc(F)cc3)CC2)n1 [Example 7.02.38.],1150
13,COc1ccc2c(c1)CCN(C(=O)Cn1nc(-c3ccc(F)cc3)nc1-c1ccc(F)cc1)CC2 [Example 7.02.39.],279
14,O=C(Cn1nc(-c2ccc(F)cc2)nc1-c1ccc(F)cc1)N1Cc2ccncc2C1 [Example 7.02.40.],1760
15,COc1ccc2c(c1)CN(C(=O)Cn1nc(-c3ccc(F)cc3)nc1-c1ccc(F)cc1)CC2 [Example 7.02.41.],1270
16,Nc1nc2c(s1)CN(C(=O)Cn1nc(-c3ccc(F)cc3)nc1-c1ccc(F)cc1)CC2 [Example 7.02.42.],1240
17,O=C(Cn1nc(-c2ccc(F)cc2)nc1-c1ccc(F)cc1)N1CCc2ncsc2C1 [Example 7.02.43.],1640
18,COc1ccc2c(c1)CCN(C(=O)Cn1nc(-c3ccc(F)cc3)nc1-c1ccc(F)cc1)C2 [Example 7.02.44.],211
19,Nc1nnc(C2CCN(C(=O)Cn3nc(-c4ccc(F)cc4)nc3-c3ccc(F)cc3)CC2)o1 [Example 7.02.45.],1000
20,COc1cccc2c1CN(C(=O)Cn1nc(-c3ccc(F)cc3)nc1-c1ccc(F)cc1)C2 [Example 7.02.46.],381
21,COc1ccc2c(c1)CN(C(=O)Cn1nc(-c3ccc(F)cc3)nc1-c1ccc(F)cc1)C2 [Example 7.02.47.],206
22,N#Cc1ccc2c(c1)CCN(C(=O)Cn1nc(-c3ccc(F)cc3)nc1-c1ccc(F)cc1)C2 [Example 7.02.48.],972
23,Cn1ncc2c1CN(C(=O)Cn1nc(-c3ccc(F)cc3)nc1-c1ccc(F)cc1)C2 [Example 7.02.49.],1360
24,O=C(Cn1nc(-c2ccc(F)cc2)nc1-c1ccc(F)cc1)N1CCC(c2ncc(Cl)cn2)CC1 [Example 7.02.50.],216
25,O=C(Cn1nc(-c2ccc(F)cc2)nc1-c1ccc(F)cc1)N1CCc2cn[nH]c2CC1 [Example 7.02.51.],707
26,O=C(Cn1nc(-c2ccc(F)cc2)nc1-c1ccc(F)cc1)N1CCC(c2ccon2)CC1 [Example 7.02.52.],472
